Results reported in patent US10179790B2 (THOMAS HELLEDAYS STIFTELSE FOR MEDICINSK FORSKNING, priority 2014, dated 2019).

Target: MTH1 (Homo sapiens, UniProt P36639)
Experiment: MTH1 enzymatic assay and IC50 value determination (malachite green, 96- and 384-well format)
Type: biochemical
Conditions: hydrolysis of dGTP (100 μM), MTH1 6 nM, pyrophosphatase-coupled malachite green, 15 minutes at 22° C.
Method: MTH1 Enzymatic Assay and IC50 Value Determination
MTH1 catalyzes the hydrolysis of dGTP to dGMP and PPi. By coupling the reaction to pyrophosphatase added in excess PPi is converted to Pi that can be detected by using the malachite green assay reagent. Two different formats were used for IC50 determinations in the enzymatic assay, 96- and 384-well format. 96-Well Method:
Briefly, the compound to be analyzed is diluted in DMSO in a 1:3 dilution series generating 12 different compound concentrations giving a final DMSO concentration of 1% in the assay well. MTH1 diluted in assay buffer (100 mM Tris-acetate, 40 mM NaCl, 10 mM magnesium acetate, 1 mM DTT and 0.005% Tween 20) fortified with E. coli pyrophosphatase (0.2 U/ml) is added to a final concentration of 6 nM. dGTP diluted in assay buffer is added to a final concentration of 100 μM. The reaction mixture is incubated for 15 minutes at 22° C. To 100 μl reaction mixture, 25 μl Malachite green assay regent (0.095% Malachite green in 17% H2SO4, 1.5% Ammonium molybdate, 0.17% Tween 20) is added, followed by incubation with shaking for 15 minutes at 22° C. The absorbance of the assay plate is read at 630 nm using a Hidex Sense Multilabel plate reader. The IC50 value is determined by fitting a dose response curve to the data points using nonlinear regression analysis and the equation Y=Bottom+(Top−Bottom)/(1+10^((Log IC50−X)*HillSlope)), where Y is the read absorbance at 630 nm and X is log [compound].
The compounds to be tested are nano-dispensed, in 11 concentrations, directly in assay plates, with a final DMSO concentration <1%. The protocol and the reaction mixture are the same as for the 96-well assay, with a total reaction volume of 50 μl/well to which 10 μl of Malachite green reagent is added. All additions to the assay plates are made with multidrop.

IC50, < 200 nM:
Nc1nc(NCCc2ccc(S(N)(=O)=O)cc2)cc(-c2ccc(Cl)c(Cl)c2Cl)n1 [Example 98, 4-[2-[[2-amino-6-(2,3,4-trichlorophenyl)pyrimidin-4-yl]amino]ethyl]benzenesulfonamide]
COc1c(Cl)ccc(-c2cc(NCCc3ccc(S(N)(=O)=O)cc3)nc(N)n2)c1Cl [Example 99, 4-[2-[[2-amino-6-(2,4-dichloro-3-methoxy-phenyl)pyrimidin-4-yl]amino]ethyl]benzenesulfonamide]
Cc1c(Cl)cccc1-c1cc(NCCn2c([N+](=O)[O-])cnc2C)nc(N)n1 [Example 100, 6-(3-chloro-2-methyl-phenyl)-N4-[2-(2-methyl-5-nitro-imidazol-1-yl)ethyl]pyrimidine-2,4-diamine]
Nc1nc(NCCc2ccc(S(N)(=O)=O)cc2)cc(-c2csc3ccccc23)n1 [Example 102, 4-[2-[[2-amino-6-(benzothiophen-3-yl)pyrimidin-4-yl]amino]ethyl]benzenesulfonamide]
Cc1c(Cl)cccc1-c1cc(NCCc2ccc(C(=N)N)cc2)nc(N)n1 [Example 125, 4-[2-[[2-amino-6-(3-chloro-2-methyl-phenyl)pyrimidin-4-yl]amino]ethyl]benzamidine]
CC(C)(C)OC(=O)N1CC=C(c2cc(NCCc3ccc(S(C)(=O)=O)cc3)nc(N)n2)CC1 [Example 129, tert-butyl 4-(2-amino-6-{[2-(4-methanesulfonylphenyl)ethyl]amino}pyrimidin-4-yl)-1,2,3,6-tetrahydropyridine-1-carboxylate]
Cc1ccc(S(=O)(=O)N2CC=C(c3cc(NCCc4ccc(S(C)(=O)=O)cc4)nc(N)n3)CC2)cc1 [Example 130, 4-N-[2-(4-methanesulfonylphenyl)ethyl]-6-[1-(4-methylbenzenesulfonyl)-1,2,3,6-tetrahydropyridin-4-yl]pyrimidine-2,4-diamine]
CC(C)(C)OC(=O)N1CC=C(c2cc(NCCc3ccc(S(N)(=O)=O)cc3)nc(N)n2)CC1 [Example 131, tert-butyl 4-(2-amino-6-{[2-(4-sulfamoylphenyl)ethyl]amino}pyrimidin-4-yl)-1,2,3,6-tetrahydropyridine-1-carboxylate]
Nc1nc(NCCc2ccc(S(N)(=O)=O)cc2)cc(C2=CCCCCC2)n1 [Example 132, 4-(2-{[2-amino-6-(cyclohept-1-en-1-yl)pyrimidin-4-yl]amino}ethyl)benzene-1-sulfonamide]
Nc1nc(NCCc2ccc(S(N)(=O)=O)cc2)cc(C2CCCCCC2)n1 [Example 134, 4-{2-[(2-amino-6-cycloheptylpyrimidin-4-yl)amino]ethyl}benzene-1-sulfonamide]
CC(=O)N1CC=C(c2cc(NCCc3ccc(S(N)(=O)=O)cc3)nc(N)n2)CC1 [Example 135, 4-(2-{[6-(1-acetyl-1,2,3,6-tetrahydropyridin-4-yl)-2-aminopyrimidin-4-yl]amino}ethyl)benzene-1-sulfonamide]
CC(C)C(=O)N1CC=C(c2cc(NCCc3ccc(S(N)(=O)=O)cc3)nc(N)n2)CC1 [Example 136, 4-[2-({2-amino-6-[1-(2-methylpropanoyl)-1,2,3,6-tetrahydropyridin-4-yl]pyrimidin-4-yl}amino)ethyl]benzene-1-sulfonamide]
CS(=O)(=O)N1CC=C(c2cc(NCCc3ccc(S(N)(=O)=O)cc3)nc(N)n2)CC1 [Example 137, 4-(2-{[2-amino-6-(1-methanesulfonyl-1,2,3,6-tetrahydropyridin-4-yl)pyrimidin-4-yl]amino}ethyl)benzene-1-sulfonamide]
Nc1nc(NCCc2ccc(S(N)(=O)=O)cc2)cc(C2=CCN(C(=O)c3ccno3)CC2)n1 [Example 138, 4-[2-({2-amino-6-[1-(1,2-oxazole-5-carbonyl)-1,2,3,6-tetrahydropyridin-4-yl]pyrimidin-4-yl}amino)ethyl]benzene-1-sulfonamide]
Nc1nc(NCCc2ccc(S(N)(=O)=O)cc2)cc(C2=CCN(C(=O)C3CCCC3)CC2)n1 [Example 139, 4-(2-{[2-amino-6-(1-cyclopentanecarbonyl-1,2,3,6-tetrahydropyridin-4-yl)pyrimidin-4-yl]amino}ethyl)benzene-1-sulfonamide]
Nc1nc(NCCc2ccc(S(N)(=O)=O)cc2)cc(C2=CCN(C(=O)CC3CCCC3)CC2)n1 [Example 140, 4-[2-({2-amino-6-[1-(2-cyclopentylacetyl)-1,2,3,6-tetrahydropyridin-4-yl]pyrimidin-4-yl}amino)ethyl]benzene-1-sulfonamide]
Cc1ccc(C(=O)N2CC=C(c3cc(NCCc4ccc(S(N)(=O)=O)cc4)nc(N)n3)CC2)cc1 [Example 141, 4-[2-({2-amino-6-[1-(4-methylbenzoyl)-1,2,3,6-tetrahydropyridin-4-yl]pyrimidin-4-yl}amino)ethyl]benzene-1-sulfonamide]
Cc1c(Cl)cccc1-c1cc(NCCNc2ccc(C(N)=O)cn2)nc(N)n1 [Example 147]
Cc1c(Cl)cccc1-c1cc(NCCNc2ccc(NC(=O)NC(C)(C)C)cn2)nc(N)n1 [Example 156, 1-[6-[2-[[2-amino-6-(3-chloro-2-methyl-phenyl)pyrimidin-4-yl]amino]ethylamino]-3-pyridyl]-3-tert-butyl-urea]
Cc1c(Cl)cccc1-c1cc(NCCNc2ccc(NC(=O)OC(C)(C)C)cn2)nc(N)n1 [Example 157, tert-butyl N-[6-[2-[[2-amino-6-(3-chloro-2-methyl-phenyl)pyrimidin-4-yl]amino]ethylamino]-3-pyridyl]carbamate]
Cc1c(Cl)cccc1-c1cc(NCCNc2nc(N)nc(N)n2)nc(N)n1 [Example 158, N2-[2-[[2-amino-6-(3-chloro-2-methyl-phenyl)pyrimidin-4-yl]amino]ethyl]-1,3,5-triazine-2,4,6-triamine]
Cc1c(Cl)cccc1-c1cc(NCCc2ccc(C(N)=O)cc2F)nc(N)n1 [Example 162, 4-[2-[[2-amino-6-(3-chloro-2-methyl-phenyl)pyrimidin-4-yl]amino]ethyl]-3-fluoro-benzamide]
Cc1c(Cl)cccc1-c1cc(NCCSCc2ccc(CN(C)C)o2)nc(N)n1 [Example 175, 6-(3-chloro-2-methyl-phenyl)-N4-[2-[[5-[(dimethylamino)methyl]-2-furyl]methylsulfanyl]ethyl]pyrimidine-2,4-diamine]
Cc1c(Cl)cccc1-c1cc(NCCc2cccc(NC(=N)N)c2)nc(N)n1 [Example 179, 1-[3-[2-[[2-amino-6-(3-chloro-2-methyl-phenyl)pyrimidin-4-yl]amino]ethyl]phenyl]guanidine]
Cc1c(Cl)cccc1-c1cc(NCC#CCSc2cccc(C(=O)O)c2)nc(N)n1 [Example 193]
Cc1c(-c2cc(NCCc3ccc(S(N)(=O)=O)cc3)nc(N)n2)cccc1C(F)(F)F [Example 197, 4-[2-({2-amino-6-[2-methyl-3-(trifluoromethyl)phenyl]pyrimidin-4-yl}amino)ethyl]benzene-1-sulfonamide]
Cc1c(Cl)cccc1-c1cc(NCCOc2ccc(C(F)(F)F)cn2)nc(N)n1 [Example 199, 6-(3-chloro-2-methylphenyl)-N4-(2-{[5-(trifluoromethyl)pyridin-2-yl]oxy}ethyl)pyrimidine-2,4-diamine]
Cc1c(Cl)cccc1-c1cc(NCCOc2ccc(-c3nn[nH]n3)cc2)nc(N)n1 [Example 202, 6-(3-chloro-2-methylphenyl)-N4-{2-[4-(2H-1,2,3,4-tetrazol-5-yl)phenoxy]ethyl}pyrimidine-2,4-diamine]
Cc1c(Cl)cccc1-c1cc(NCC(O)c2ccc(S(C)(=O)=O)cc2)nc(N)n1 (stereo not shown) [Example 215, 2-(2-amino-6-(3-chloro-2-methylphenyl)pyrimidin-4-ylamino)-1-(4-(methylsulfonyl)phenyl)ethanol]
Cc1c(Cl)cccc1-c1cc(NCC(O)c2ccc(S(N)(=O)=O)cc2)nc(N)n1 (stereo not shown) [Example 216, 4-(2-(2-Amino-6-(3-chloro-2-methylphenyl)pyrimidin-4-ylamino)-1-hydroxyethyl)benzenesulfonamide]
CS(=O)(=O)c1ccc(CCNc2cc(-c3cccc(Cl)c3CO)nc(N)n2)cc1 [Example 217, (2-(2-Amino-6-(4-(methylsulfonyl)phenethylamino)pyrimidin-4-yl)-6-chlorophenyl)methanol]
